Results published in US6376175B1, “Methods of discovering chemicals capable of functioning as gene expression modulators” (OSI Pharmaceuticals, Inc., priority 1989, dated 2002).
Like-named read-outs stand apart in the source and are kept apart here.

Tests used:
GM-CSF promoter = assay: GM-CSF promoter-luciferase induction by known inducers, clones GM 1073, GM 1088, GM 1105; format: cell-based, human; details: for luciferase expression induction, clone 1088: GM-CSF reporter clone GM 1088; for luciferase expression induction, clone 1105: GM-CSF reporter clone GM 1105
Description: All routine subcloning procedures were performed as described by Maniatis et al. (1982), (28) unless otherwise noted. The about 0.7 kb HindIII/RsaI fragment of the GM-CSF clone (FIG. 20) was inserted into pUC 18 previously digested with HindIII/HincII. The about 0.7 kb HindIII/SmaI fragment was then isolated from the resulting vector and cloned into pUV 100 digested previously with HindIII/SnaBI, thereby generating pGMLUCI (FIG. 22.) In order to correctly fuse the GM-CSF ATG with the coding region of luciferase, four oligonucleotides (FIG. 21) were synthesized, phosphorylated, annealed, ligated, and inserted into pUC19 previously digested with Eco RI/XbaI, generating pGM-1 (FIG. 22). pGM-1 was then sequences (Sequenase Kit, US Biochemicals, Cleveland, Ohio) using the M13 forward (U.S. Biochem.) and reverse primers (Pharmacia, Piscataway, N.J.) to ensure that there were no mutations in the synthesized oligonucleotides. The about 1.8 kb BstEII/ScaI fragment from pGM-1 was then isolated and ligated to about 1.5 kb BstEII/ScaI fragment from pGMLUCI to generate pGM-2 (FIG. 22). pGM-2 was then digested with Hind III/XbaI and about 0.7 kb fragment was cloned into pUV 102 and pUV 103 previously digested with HindIII/XbaI. This generated pGMLS102 and pGMLS103 (FIG. 22), which contain 663 bp of GM-CSF sequence 5′ of the ATG fused directly to the second (correct) ATG of luciferase and the rest of the luciferase coding region. An additional about 1.4 kb of upstream sequences were cloned into this construct by isolating the about 1.4 kb SalI/HindIII fragment from the GM-CSF clone (FIG. 20), blunting the SalI end by filling in with Klenow polymerase, and inserting the fragment into pGMLS102 and pGMSL103 previously digested with HindIII/SnaBI. This step generated pGMLL102 and PGMLL103, respectively (FIG. 23). Finally, the pTKNEO2 and PTKNEO3 about 1.8 kb SfiI fragments were cloned directly into the SfiI site of pGMLL103 to generated pGMLL103 NEO2 and pGMLL103 NEO3.
6 clones generated by electroporation with pGMLL103 NEO3 (FIG. 23; Materials and Methods, section D.2) were subjected to further analysis as described above: GM 1073 (10 ug; circular); GM 1081, 1088 and 1090 (5 ug; linear); and GM 1098 and 1105 (10 ug; linear).
Promoter induction experiments were also conducted with the GM-CSF reporter cell lines GM 1073, GM 1088 and GM 1105, which were all shown to contain correctly inserted constructs (see above). […] Luciferase expression of clones 1088 and 1105 was induced by PMA 2.8 fold and 2 fold, respectively, while TNF-alpha induced both clones 2 fold.

human G-CSF promoter = format: cell-based; details: 7-hour incubation, serum-free media
Excerpt: A human bladder carcinoma cell line (U5637, ATCC number HTB 9) was used for transfection of plasmids containing the human Granulocyte-Colony Stimulating Factor (G-CSF) promoter (see below) and was maintained in RPMI medium supplemented with 10% FCS. For HTP screening, transfected 5637 clones were transferred to a serum free defined medium identical to that used for the NIH/3T3 clones.
The sequences of OL-1, OL-2 and OL-5 recognize the G-CSF promoter region, OL-4 recognizes the first intron/exon junction and OL-3 recognizes sequences within the second exon (32). One of the clones isolated from the leukocyte library using these oligonucleotide probes contains a 3.5 kb SalI-BamHI fragment of G-CSF genomic sequence consisting of 3.3 kb of promoter sequence and two hundred base pairs of the coding region. This fragment was inserted into the vector pGEM-7-Zf (Promega, Madison, Wis.) which had previously been digested with SalI/BamHI, resulting in the vector pJM710 (FIG. 7). pJM710 was then digested with PstI, and the resulting 1.6 kb fragment containing G-CSF upstream sequences and the first 15 bases of the G-CSF leader sequence was inserted into the PstI site of pGEM5-Luci (FIG. 8) to generate pG-Lucl (FIG. 9). This construct was then used for transfection of 5637 human bladder carcinoma cells as described below in section E3. pGEM5-Luci (FIG. 8) had previously been constructed by inserting the […]/SalI fragment from pSVLuci (FIG. 2) containing the luciferase coding sequence and the SV40 late polyadenylation signal into pGEM 5-Zf (Promega, Madison Wis.) digested with XhoI/SalI.
pG-LUC1 (FIG. 9) and pRSVNeo were co-transfected into 5637 human bladder carcinoma cells as described above. Selection of G418 resistant clones was as described above except for using a concentration of 0.1 mg/ml G418. Analysis of cell clones was performed as above except that a known inducer of G-CSF expression (1-5 µg/ml lipopolysaccharide (LPS), E. coli serotype 055:b5, Difco, Detroit, Mich. or Sigma, St. Louis, Mo.) was used in place of dexamethasone.
Cell plating: Dynatech Microlite 96 well plates were custom pretreated for cell attachment by Dynatech Laboratories, Inc. (Chantilly, Va.). Alternatively, the 96 well plates were treated with 50 µl per well of human fibronectin (hFN, 15 µg/ml in PBS, Collaborative Research, Bedford, Mass.) overnight at 37 C. hFN-treated plates were washed with PBS using an Ultrawash 2 Microplate Washer (Dynatech Labs), to remove excess hFN prior to cell plating. M10, 532, and G21 cells maintained in their respective serum media (with 0.2 mg/ml G418) were washed with PBS, harvested by trypsinization, and counted using a hemocytometer and the Trypan Blue exclusion method according to protocols provided by Sigma, St. Louis, Mo. Chemical Company. Cells were then diluted into serum free defined media (with 0.2 mg/ml G418), and 0.2 ml of cell suspension per well was plated onto Dynatech treated plates (532 and G21) or hFN-treated plates (M10) using a Cetus Pro/Pette (Cetus, Emeryville Calif.). Plates were incubated overnight at 37 C in a humidified 5% CO2 atmosphere.
Addition of Chemicals to Cells: Chemicals from the Oncogene Science file were dissolved in DMSO at concentrations of 3-30 mg/ml. A liquid handling laboratory work station (RSP 5052, Tecan U.S. Chapel Hill, N.C.) was used to dilute the chemicals (three dilutions; 5 fold, 110 fold, and 726 fold). 10 11 of each dilution were added to each of quadruplicate samples of cells contained in the wells of 96-well Dyantech Microlite Plates. […]

Compound | GM-CSF promoter induction, GM 1073 cells (GM-CSF promoter; 10.5 hours, 20 ng/ml PMA, serum-containing media) [fold] | luciferase expression induction, clone 1088 (GM-CSF promoter) [fold] | luciferase expression induction, clone 1105 (GM-CSF promoter) [fold] | GM-CSF promoter induction, GM 1073 cells (GM-CSF promoter; PMA, serum-free media) [fold] | increase of luciferase expression directed by the G-CSF promoter, G 21 cells (human G-CSF promoter; absence of EGF) [fold] | increase of luciferase expression directed by the G-CSF promoter, G 21 cells (human G-CSF promoter; presence of EGF) [fold]
CCCCCCCCCCCCCC(=O)O[C@@H]1[C@@H](C)[C@@]2(O)[C@@H](C=C(CO)C[C@]3(O)C(=O)C(C)=C[C@@H]23)[C@@H]2C(C)(C)[C@]12OC(C)=O [PMA, phorbo-myristate-acetate, reference compound] | 3.4 | 2.8 | 2 | 7.5 | 34.6 | 24.6
TNF-alpha | – | 2 | 2 | – | 2.1 | 2.8
